# Assays:
# [1] = molecular target: T1, mammalian DOPA decarboxylase from porcine kidney (Sus scrofa, UniProt P80041); test: Time dependent inactivation of DOPA decarboxylase; type: biochemical; conditions: porcine kidney enzyme
# T1 construct: isolated and purified from porcine kidney; from tissue; host or cells: porcine kidney
# T1 sequence (P80041 1-486): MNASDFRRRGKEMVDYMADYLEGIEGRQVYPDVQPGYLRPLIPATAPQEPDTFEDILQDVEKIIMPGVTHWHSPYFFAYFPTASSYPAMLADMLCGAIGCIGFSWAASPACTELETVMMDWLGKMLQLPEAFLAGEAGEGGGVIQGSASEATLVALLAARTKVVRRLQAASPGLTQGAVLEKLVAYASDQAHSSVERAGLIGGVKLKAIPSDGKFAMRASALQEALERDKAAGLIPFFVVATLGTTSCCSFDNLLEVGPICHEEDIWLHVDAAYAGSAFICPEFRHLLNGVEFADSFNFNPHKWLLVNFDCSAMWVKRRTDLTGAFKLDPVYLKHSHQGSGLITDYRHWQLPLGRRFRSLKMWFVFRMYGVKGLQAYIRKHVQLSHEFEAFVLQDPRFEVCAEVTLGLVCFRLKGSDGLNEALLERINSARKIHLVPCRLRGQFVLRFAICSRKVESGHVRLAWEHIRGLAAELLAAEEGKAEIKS
# Text: (§1) Mammalian DOPA decarboxylase was isolated and purified from porcine kidney by the procedure of Borri-Voltatorni et al [Eur. J. Biochem., 93, 181 (1979)] with modifications as introduced by Rudd and Thanassi [Biochemistry, 20, 7469 (1981)]. Bacterial L-phenylalanine and L-tyrosine decarboxylases ex Streptococcus faecallis were purchased from Sigma Chemical Co. as crude extracts and studied without further purification.
# Time dependent inactivation of mammalian DOPA decarboxylase was monitored by incubation of enzyme with 4 to 100 molar equivalent excess of 2-amino-2-(3,4-dihydroxybenzyl)penta-3,4-dienoic acid at pH 6.8 and 37° C. At appropriate time intervals, aliquots of the mixture were withdrawn, diluted 30-fold into excess L-DOPA (2 mM) and residual DOPA decarboxylase activity determined.
# DOPA decarboxylase activity was routinely measured by liquid chromatography and electrochemical detection of catecholamine products. DOPA decarboxylase (1-5 micrograms, 1-20 units) was incubated with L-DOPA (2000 micromolar, 150 microliters) and PLP (10 micromolar) in 0.1M phosphate at pH 6.8 and 37° C. After 1-10 minutes, the reaction was quenched with citric acid (2M, 25 microliters), diluted two-fold with distilled water and 10 microliter aliquots were analyzed by HPLC on a reverse phase Brownlee RP-18 column. Isocratic elution with pH 4.35 buffer [0.1M NaOAc ([…]), 0.1M citric acid (32% v/v) and methanol (15% v/v)] at a flow rate of 2.5 ml/min. afforded baseline resolution of dopamine (RT=2.8 min.) from L-DOPA (RT=1.9 min.).
# Quantification of dopamine was accomplished by preoxidation of the catechol to the ortho quinone at +0.25 volts in the first analytical electrochemical cell, followed by the selective reduction of ortho quinone in the second analytical cell set at -0.25 volts. This configuration for the ESA electrochemical detector allowed highly sensitive and selective detection of catecholamines (less than 10 picomoles/injection).
# [2] = molecular target: T2, bacterial tyrosine decarboxylase from Streptococcus faecallis (Enterococcus faecalis, UniProt Q838D6); test: Time dependent inactivation of tyrosine decarboxylase; type: biochemical; conditions: Streptococcus faecallis enzyme
# T2 construct: purchased from Sigma Chemical Co. as crude extracts; purchased Sigma Chemical Co; host or cells: Streptococcus faecalis, crude extract
# T2 sequence (Q838D6 1-620): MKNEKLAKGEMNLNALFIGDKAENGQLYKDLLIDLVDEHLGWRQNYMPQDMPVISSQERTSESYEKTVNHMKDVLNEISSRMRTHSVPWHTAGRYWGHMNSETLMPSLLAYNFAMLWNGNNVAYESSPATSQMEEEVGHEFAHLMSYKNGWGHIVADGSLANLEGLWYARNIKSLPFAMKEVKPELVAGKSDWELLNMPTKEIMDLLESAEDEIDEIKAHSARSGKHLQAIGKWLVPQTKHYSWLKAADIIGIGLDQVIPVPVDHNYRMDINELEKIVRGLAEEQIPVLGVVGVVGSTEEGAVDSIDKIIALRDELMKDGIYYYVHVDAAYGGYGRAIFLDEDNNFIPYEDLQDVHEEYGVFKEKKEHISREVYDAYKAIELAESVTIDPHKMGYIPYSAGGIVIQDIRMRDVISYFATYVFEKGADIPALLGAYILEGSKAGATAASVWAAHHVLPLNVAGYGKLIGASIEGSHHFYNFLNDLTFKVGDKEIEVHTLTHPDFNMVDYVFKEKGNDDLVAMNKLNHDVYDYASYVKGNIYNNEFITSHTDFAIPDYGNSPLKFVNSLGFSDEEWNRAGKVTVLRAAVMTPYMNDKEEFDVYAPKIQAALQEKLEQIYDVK
# Text: as §1
# (§2) The time dependent inactivation of bacterial aromatic amino acid decarboxylases with 200-1000 micromolar inhibitor, e.g. 2-amino-2-(4-hydroxybenzyl)-penta-3,4-dienoic acid or 2-amino-2-benzylpenta-3,4-dienoic acid, was monitored at pH 5.5 and 37° C. Residual activity of tyrosine decarboxylase ex Streptococcus faecallis was determined by measurement of p-tyramine production at pH 5.5 and 37° C. p-Tyramine was separated by HPLC and quantified by electrochemical oxidation at +0.7 volts.
# [3] = molecular target: T3, phenylalanine decarboxylase from Streptococcus faecallis (Enterococcus faecalis, UniProt Q838D6); test: Time dependent inactivation of phenylalanine decarboxylase; type: biochemical; conditions: Streptococcus faecallis enzyme
# T3 construct: L-phenylalanine substrate, phenylethylamine by GC
# T3 sequence (Q838D6 1-620): T2 sequence (Q838D6 1-620)
# Text: as §1, §2
# Residual activity of L-phenylalanine decarboxylase ex Streptococcus faecallis with L-phenylalanine (2 mM) as substrate was meaasured by gas chromatographic analysis of phenylethylamine production. Direct injection of enzymatic reaction mixture (1-5 microliters) onto a standard glass column packed with 10% Apiezon L on Chromosorb 80/100 deactivated with 2% KOH allowed separation of aromatic amine from the reaction mixture. FID detection quantified the rate of product formation.
# Male Sim:(S.D.)fBR rats = test: In vivo potentiation of L-DOPA induced behaviors; set-up: species or system rat; conditions: for Mean Behavior Score at 60 min.: score scale 0-6, before 200 mg/kg L-DOPA i.p.
# Method: Male Sim:(S.D.)fBR rats weighing 180-335 g were used for these experiments. Groups of 5 rats were individually housed and received water, or various doses of either 2-amino-2-(3-hydroxybenzyl)penta-3,4-dienoic acid or 2-amino-2-(3,4-dihydroxybenzyl)penta-3,4-dienoic acid 30 l minutes before 200 mg/kg of L-DOPA, i.p. Beginning 15 minutes later, behavioral observations were made at 15 minutes intervals for 2 hours. Behavoir was scored as follows:
# 3=Alert with intermittent sniffing
# [4] = Toxicity (acute, oral, mouse); type: in vivo; conditions: in vivo; acute, oral, mouse
# Method: (§3) 2-amino-2-(3-hydroxybenzyl)penta-3,4-dienoic acid prepared in CMC vehicle was administered once daily to groups of 6 male mice at doses 0, 62.5, 125, 250, and 500 mg/kg. […] Therefore, the LD50 (acute, oral, mouse) for 2-amino-2-(3-hydroxybenzyl)penta-3,4-dienoic acid is greater than 500 mg/kg.
# male mice = test: Toxicity (acute, oral, mouse); type: in vivo; conditions: male mice; 62.5, 125, 250 and 500 mg/kg in CMC vehicle; observed for 21 days
# Method: as §3
# dermatophytes = test: In vitro anti-microbial activity (dermatophytes); type: cell-based
# [5] = molecular target: T4, mammalian ornithine decarboxylase from rat liver (Rattus norvegicus, UniProt P09057); test: Inactivation of mammalian ornithine decarboxylase; type: biochemical; conditions: rat liver enzyme
# T4 construct: mammalian ornithine decarboxylase from rat liver; from tissue; host or cells: rat liver
# T4 sequence (P09057 1-461): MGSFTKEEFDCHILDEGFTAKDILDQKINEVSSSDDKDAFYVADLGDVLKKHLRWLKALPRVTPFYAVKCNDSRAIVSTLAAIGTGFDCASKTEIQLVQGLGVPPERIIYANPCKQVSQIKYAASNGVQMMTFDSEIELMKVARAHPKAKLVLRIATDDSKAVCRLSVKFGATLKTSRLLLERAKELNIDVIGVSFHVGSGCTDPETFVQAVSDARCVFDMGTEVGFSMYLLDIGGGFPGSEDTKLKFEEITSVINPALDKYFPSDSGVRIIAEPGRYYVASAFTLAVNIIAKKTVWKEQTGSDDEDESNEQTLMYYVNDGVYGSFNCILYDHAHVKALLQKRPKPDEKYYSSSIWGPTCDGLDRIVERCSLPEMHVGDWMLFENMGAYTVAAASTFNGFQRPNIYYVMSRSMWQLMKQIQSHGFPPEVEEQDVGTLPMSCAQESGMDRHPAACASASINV
# [6] = molecular target: T5, bacterial ornithine decarboxylase from E. Coli (Escherichia coli, UniProt P21169); test: Inactivation of bacterial ornithine decarboxylase; type: biochemical; conditions: E. Coli enzyme
# T5 construct: bacterial ornithine decarboxylase from E. Coli; host or cells: E. coli
# T5 sequence (P21169 whole entry): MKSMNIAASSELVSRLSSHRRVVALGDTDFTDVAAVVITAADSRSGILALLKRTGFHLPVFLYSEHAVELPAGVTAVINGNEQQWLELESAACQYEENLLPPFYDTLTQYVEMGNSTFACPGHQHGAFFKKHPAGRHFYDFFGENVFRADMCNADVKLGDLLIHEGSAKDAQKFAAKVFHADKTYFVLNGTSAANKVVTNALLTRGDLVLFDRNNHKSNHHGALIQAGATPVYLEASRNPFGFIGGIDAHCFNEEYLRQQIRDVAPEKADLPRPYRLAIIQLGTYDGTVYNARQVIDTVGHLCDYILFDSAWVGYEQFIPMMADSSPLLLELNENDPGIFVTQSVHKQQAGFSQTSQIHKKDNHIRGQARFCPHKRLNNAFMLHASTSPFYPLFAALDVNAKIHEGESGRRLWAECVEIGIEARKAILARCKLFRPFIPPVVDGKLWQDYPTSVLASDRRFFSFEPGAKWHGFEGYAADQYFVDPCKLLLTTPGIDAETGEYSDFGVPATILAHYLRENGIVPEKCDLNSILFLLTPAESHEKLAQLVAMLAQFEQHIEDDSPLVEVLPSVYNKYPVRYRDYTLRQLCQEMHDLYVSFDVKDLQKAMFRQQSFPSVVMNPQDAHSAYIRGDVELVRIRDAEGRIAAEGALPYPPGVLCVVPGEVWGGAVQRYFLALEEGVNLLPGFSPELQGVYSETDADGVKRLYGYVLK
structure (smiles),measurement,setting,value
"C=C=CC(N)(Cc1cccc(O)c1)C(=O)O (stereo not drawn) [2-amino-2-(3-hydroxybenzyl)penta-3,4-dienoic acid]",irreversible inactivation of DOPA decarboxylase,[1],irreversible inactivators
same,irreversible inactivation of tyrosine decarboxylase,[2],irreversible inactivators
same,irreversible inactivation of phenylalanine decarboxylase,[3],irreversible inactivators
same,potentiation of the behaviors induced by L-DOPA,"Male Sim:(S.D.)fBR rats; 3-30 mg/kg i.p. or 30-150 mg/kg s.c., 30 minutes before 200 mg/kg L-DOPA i.p.",potentiated the behaviors induced by L-DOPA
same,Mean Behavior Score at 60 min.,Male Sim:(S.D.)fBR rats; 3-30 mg/kg i.p.,3.4
same,potentiation of DOPA behaviors,Male Sim:(S.D.)fBR rats; 3 to 30 mg/kg i.p. or 30 to 150 mg/kg s.c.,potentiate DOPA behaviors
same,Mean Behavior Score at 60 min.,Male Sim:(S.D.)fBR rats; 30-150 mg/kg s.c.,3.4
same,LD50 at 504 h,[4],> 500 mg/kg
same,deaths,male mice,no deaths
"C=C=C(C)C(N)C(=O)O (stereo not drawn) [2-amino-3-methylpenta-3,4-dienoic acid]",activity in vitro against a spectrum of dermatophytes,dermatophytes,active
"C=C=CC(N)(CCCN)C(=O)O (stereo not drawn) [2-amino-2-(3-amino-n-propyl)penta-3,4-dienoic acid]",irreversible inactivation of ornithine decarboxylase,[5],irreversible inactivators
same,irreversible inactivation of ornithine decarboxylase,[6],irreversible inactivators

# From patent US4661510A, “α-allenic-α-amino acids as enzyme inhibitors” (priority 1985, dated 1987)
